Measured values reported in patent US9242928B2, “Compound, kinesin spindle protein inhibitor, and application thereof” (FUJITSU LIMITED, priority 2010, dated 2016).

Target: T1, human KSP motor domain (Uniprot P52732, residues 1-387) (Homo sapiens, UniProt P52732)
T1 construct: human KSP motor domain (Uniprot P52732, residues 1-387); His6; made in house; host or cells: E. coli BL21 Star (DE3)
T1 sequence (P52732 1-387): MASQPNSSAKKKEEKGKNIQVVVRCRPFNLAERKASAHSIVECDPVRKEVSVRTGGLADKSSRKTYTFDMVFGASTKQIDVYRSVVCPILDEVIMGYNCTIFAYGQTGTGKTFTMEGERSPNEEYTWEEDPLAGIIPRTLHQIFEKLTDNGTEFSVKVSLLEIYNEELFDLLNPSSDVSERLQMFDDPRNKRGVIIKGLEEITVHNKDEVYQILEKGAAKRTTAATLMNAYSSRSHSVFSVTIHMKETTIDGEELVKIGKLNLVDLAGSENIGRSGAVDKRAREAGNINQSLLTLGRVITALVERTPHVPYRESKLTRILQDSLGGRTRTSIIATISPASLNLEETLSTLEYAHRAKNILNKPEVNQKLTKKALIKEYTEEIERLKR
Assay: Inhibitory activity against kinesin spindle protein (microtubule-stimulated ATPase, quinaldine red Pi detection, absorbance at 525 nm)
Format: biochemical
Conditions: 30 nM kinesin spindle protein, 1 mM ATP, 37° C., 20 min
Protocol: Each of the compounds represented by Structural Formulas (1) to (4) was measured for inhibitory activity against a kinesin spindle protein by the following method referring to the methods described in Elizabeth B. Cogan et al., Analytical Biochemistry, 1999, 271, pp. 29-35 and Keith W. Rickert et al., Archives of Biochemistry and Biophysics, 2008, 469, pp. 220-231.
The human KSP motor domain (Uniprot P52732, residues 1-387) was cloned into the pRSETa vector (product of Invitrogen Co., Ltd) and expressed in E. coli BL21 Star (DE3) (product of Invitrogen Co., Ltd) with His6 tag for purification.
Each of the compounds represented by Structural Formulas (1) to (4) was prepared in 100% by mass DMSO (dimethylsulfoxide) at 100-fold concentration (100×). Then, the resulting mixture was diluted with 1.00% by mass DMSO to each of 0.001 mM, 0.003 mM, 0.01 mM, 0.03 mM, 0.1 mM, 0.3 mM, 1 mM, 3 mM, 10 mM and 30 mM.
A reaction mixture having a formulation described in the following Table 1 was prepared. Specifically, 28.5 μL of water, 1 μL ([…]) of the above-purified kinesin spindle protein, 5 μL of a 10× reaction buffer (150 mM PIPES (1,4-piperazine ethanesulfonic acid) (pH 7.0), 10 mM magnesium chloride, 10 mM EGTA (glycol ether diamine tetraacetate)), 10 μL of 5× microtubules solution (330 μg/mL microtubules, 15 mM PIPES (pH 7.0), 1 mM magnesium chloride, 10 μM Taxol) and 0.5 μL of the above-prepared 100× compound (the compound represented by Structural Formula (1), (2), (3) or (4)) were mixed together to prepare 45 μL of a reaction mixture, which was incubated at 37° C. for 10 min. Then, 5 μL of a 100×ATP solution (10 mM ATP, 10 mM PIPES (pH 7.0)) was added to the reaction mixture to initiate the reaction. Immediately after that, the reaction mixture was incubated at 37° C. for 20 min. […]
After the reaction, 150 μL of Quench C buffer (the formulation of which is given below) was added the reaction mixture to terminate the reaction, followed by incubating at room temperature for 5 min. Then, the reaction mixture was measured for absorbance at 525 nm with a microplate reader (SpectraMax, product of Molecular Devices Co., Ltd.). […]
The kinesin spindle protein decomposes ATP into ADP and Pi (phosphoric acid). […] Thus, the amount of the formed Pi can be measured by measuring the absorbance at 525 nm. With the absorbance at 525 nm of the high control (the amount of the formed Pi) being 100, comparing the absorbance of the high control with absorbance of test groups to which the above compounds have been added can determine whether the activity of the kinesin spindle protein is inhibited.
That is, the inhibitory rate of the activity of the kinesin spindle protein can be calculated from the following calculation formula. […]

CCN(CC)C(=O)CN(Cc1ccccc1)c1ccc2c(c1)C=CC2C (stereo not shown) [Structural Formula (3)]
Inhibitory rate (%) (compound concentration 39 μM): 50%

CCN(CC)C(=O)CN(Cc1ccccc1)c1ccc2c(c1F)CCC2=O [Structural Formula (2), 2-(benzyl(4-fluoro-1-oxo-2,3-dihydro-1H-inden-5-yl)amino)-N,N-diethylacetamide]
Inhibitory rate (%) (compound concentration 88 μM): 50%

CCN(CC)C(=O)CN(Cc1ccccc1)c1ccc2c(c1F)C=CC2(C)C [Structural Formula (1)]
Inhibitory rate (%) (compound concentration 10 μM): 44.5%

CC1C=Cc2cc(N(CC(=O)N(C)C)Cc3ccccc3)ccc21 (stereo not shown) [Structural Formula (4)]
Inhibitory rate (%) (compound concentration 100 μM): 79.8%
